According to a melting point compilation (Tetko et al.; mined from patent text by program, amines drawn as free bases though some values may be those of a salt):

melting point [°C]	SMILES
106 to 108	O=S(=S)(OC1O[C@H](COCc2ccccc2)[C@@H](OCc2ccccc2)[C@H](OCc2ccccc2)[C@H]1OCc1ccccc1)c1ccccc1 (some centres not stated)
187	COc1ccc(C(=O)c2cc3c(c(Cl)c2Cl)OC(C(=O)O)C3)cc1 (configuration not stated)
77 to 78	Clc1ccc(-c2noc(CCC#Cc3ccccn3)n2)c(Cl)c1
167 to 168	NC(=O)[C@@H]1CCCc2cc(Sc3ccccc3)cc(F)c21
235	OC1CSC(Oc2cncc(-c3cc4ccccc4s3)c2)C(O)C1O (configuration not stated)
213 to 214	C[C@H]([C@@H](C)P(=S)(c1ccccc1)c1ccccc1)P(=S)(c1ccccc1)c1ccccc1
124 to 126	c1ccc(N2CCN(Cc3ccc4ccccc4c3)CC2)nc1
89 to 90	C=CCNc1nc(NC(C)(C)C)c2scc(C)c2n1
193	CC1(C)CN(CCN2CC(C)(C)N(O)C(C)(C)C2=O)C(=O)C(C)(C)N1O
207 to 208	N=C(N)NCCC[C@@H](NC(=O)C(c1ccccc1)c1ccccc1)C(=O)NCc1ccc(CCC(N)=O)cc1
97 to 99	CC(C)Cc1ccc(COc2ccc(CC(=O)O)cc2Cl)cc1
130	O=C(O)[C@H](Cc1c[nH]c2ccccc12)NC(=O)[C@@H]1C[C@H](S)CN1S(=O)(=O)c1ccc2ccccc2c1
252 to 255	O=C1NC(=O)c2c1c(-c1ccccc1)cc1c2c2cc(O)ccc2n1CCCN1CCOCC1
233	NC(=O)c1[nH]cnc1OC(=O)C=Cc1ccc(C=O)cc1
54 to 55	CC(C)(C)C(=O)C(F)n1cncn1 (configuration not stated)
170 to 171	CCCCCCCCOC(=O)c1[nH]c2cccc3c2c1CCNC3=O
258 to 262	CCOC(=O)c1c2n(c3cc(Br)c(F)cc3c1=O)CCS2
97 to 104	CCCCCCCCCCCCCCCC(=O)OC[C@H]1OCC(=NO)[C@@H](O)[C@@H]1O
105 to 107	CC(C)c1nn(-c2ccccn2)c(-c2ccc(F)cc2)c1/C=C/C=O
197 to 229	COc1cc2c(cc1C)CCC=C2c1ncc[nH]1
192 to 193	CCCCOc1nc(N)c2[nH]c(=O)n(CCCCN(CC(C)(C)O)S(=O)(=O)c3cccc(CC(=O)OC)c3)c2n1
74 to 76	COCCOC(=O)C1Oc2ccccc2Cc2ccccc2O1
73 to 74	O=Cc1ccc(OCc2ccccc2)c(OCc2ccccc2)c1OCc1ccccc1

melting point [°C]	SMILES
160 to 163	CN(C)S(=O)(=O)c1cc([N+](=O)[O-])ccc1C(=O)O
136 to 139	Cn1ncnc1COc1nn2c(-c3ccccc3F)nnc2cc1C1CCCO1 (configuration not stated)
160 to 162	CCOC(=O)CN1C(=O)c2cccc3cccc(c23)C1=O
147 to 149	CC(C)(C)c1cc(CCCCCCc2cc(C(C)(C)C)c(O)c(C(C)(C)C)c2)cc(C(C)(C)C)c1O
233 to 235	Cc1nc2c(O)c(CCC(=O)c3cccs3)c(C(=O)N(C)C)cc2n1C
92 to 96	CCOC(=O)C1=C(COCCN2CCN(c3nc(N)n(C)n3)CC2)NC(C)=C(C(=O)OC)C1c1ccccc1Cl (configuration not stated)
134 to 135	CCCCCc1ccc2cc(Nc3ccc(O)cc3)ccc2c1
127 to 130	Cc1cccc2c1C=Cc1ccccc1C2(C)NO (configuration not stated)
83 to 84	COc1ccc([C@@H]2Sc3cc(Cl)ccc3N(CCN(C)C)C(=O)[C@@H]2OCC(=O)OC(C)(C)C)cc1
55 to 60	CCCCCCCCCCCCCCCCCCOc1cccc(NCC(=O)OCc2ccccc2)c1
73 to 75	C=CC(=O)OCC1(COC(=O)C=C)c2ccccc2-c2ccccc21
146 to 147	OCc1cn(-c2ccc(Cl)c(Cl)c2)cn1
196 to 207	O=C(O)CCCc1cc2nc(Cl)ccc2n1S(=O)(=O)c1ccc(-n2cccn2)cc1
132 to 133	N#CC1(c2ccc(Cl)cc2)C2CC3CC(C2)CC1C3 (configuration not stated)
167 to 168	COCc1cc(Cl)cc2c1OC(C(F)(F)F)C(C(=O)O)=C2 (configuration not stated)
131 to 132	N#CC(c1ccc(Cl)cc1)N(Cc1ccccc1)C(=O)C(F)(F)F (configuration not stated)
176	CSc1nccn1CC(=O)O
40 to 41	CN(SN(C)C(=O)F)C(=O)F
208 to 210	CNc1ccc(Cl)c(-c2cc(=O)c3c(O)cc(O)c(C4CCN(C)C4CO)c3o2)c1 (configuration not stated)
224 to 225	CCN(c1c(-c2ccccc2)[nH]c(C)c1C(=O)c1ccccc1)S(=O)(=O)c1ccc(C)cc1
209 to 215	CC(C)CC(=O)Nc1c(C(=O)C2CCCCC2)[nH]c2cc(Cl)ccc12
101	CCN(CC)C(=O)c1nc(-c2ccccc2)c2ccccc2n1

Second part, the compound before the results:

SMILES	melting point [°C]
Nc1nc2c(ncn2OCCCP(=O)(O)O)c(=O)[nH]1	> 300
CCCCCCCCC1C(=O)NC(=O)N1CCCCCCC(=O)O (configuration not stated)	65 to 66
O=C1N(Cc2noc(C(F)(F)F)n2)c2ccccc2C12COc1cc3c(cc12)OCO3 (configuration not stated)	139 to 140
CCN(CC)C(=O)C=Cc1ccc(C2=C(c3ccc(O)cc3)CCc3cc(O)ccc32)cc1	222
Cc1ccc(F)c(NC(=O)c2ccccc2CN2C(=O)C3(COc4cc5c(cc43)CCO5)c3ccccc32)c1 (configuration not stated)	214 to 216
CCOC(=O)Cc1ccc(NC(=O)C(COc2ccccc2)NS(=O)(=O)c2ccc(Br)cc2)cc1 (racemic)	150 to 153
COc1cc(OCc2nc(-c3ccco3)oc2C)ccc1C=O	111 to 112
CC(C)c1cc2c(c3c1C(=O)N(CCl)S3(=O)=O)OCO2	174 to 176
O=C(Nc1nc(Cl)cc(Cl)n1)NS(=O)(=O)Nc1ccccc1C(=O)C1CC1	114 to 116
CC(C)c1ccc(C2c3cc(N)ccc3OC2(C)C)cc1 (configuration not stated)	109 to 110
C=C=CC(=O)Nc1ccc2ncnc(Nc3cccc(Br)c3)c2c1	268 to 270
Cc1cn(C2OC(CO)C(O)C2O)c(=O)[nH]c1=O (configuration not stated)	244 to 249
O=c1c2cnc3cc4c(cc3c2sn1CCc1ccccn1)OCO4	200 to 201
CC(C)(C)OC(=O)N1CCNC(=O)C1Cc1ccc(F)cc1 (configuration not stated)	145 to 147
c1cnc2cc(C34CCCN3CCC4)oc2c1	39 to 41
COc1cccc2c(=O)c(OCC(=O)O)coc12	215 to 217
CN1CCCC(C(=O)N2CCC(c3[nH]nc4c3C(=O)c3c(NC(=O)NN5CCOCC5)cccc3-4)CC2)C1 (configuration not stated)	158 to 160
CCCn1c(CCOC)nc2c(N)nc3cc(OC4CCN(C(=O)NC(C)C)CC4)ccc3c21	176 to 179
CN1C(=O)CC[C@]2(C)c3ccc(-c4ncccn4)cc3CC[C@@H]12	160 to 162

SMILES	melting point [°C]
Cc1ccc(C2CC(=O)C=C(N)C2)s1 (configuration not stated)	172 to 173
Cc1cc(C(=O)O)ccc1-c1ccccc1C(F)(F)F	171 to 174
N#CC(C(N)=O)=C1Cc2ccccc2SN1	260 to 267
CCOC(=O)c1oc2cccc(COC)c2c1C	45 to 47
CCOC(=O)CNC(=O)Nc1c(-c2ccccc2OC)c2ccccc2c(=O)n1C	128 to 130
CC(=O)c1cc2c(s1)SCCN(CCCCCl)C2=O	132 to 134
NC(CCO)C1(c2ccc(Cl)cc2)CCC1 (configuration not stated)	98 to 99
Oc1ccc(CC2NCCC3=C2CCCC3)cc1 (single isomer, unassigned; (+))	154 to 156
CCOc1ccc(C=CC(=O)c2c(OC)cc(OC)cc2OC(=O)CC)cc1	105
Cc1ccc2c(c1)c1c(n2CCCl)C(=O)CCC1	108
CC(C)C[C@H](NC(=O)OCc1ccccc1)C(=O)N[C@@H](Cc1ccccc1)C(=O)CSCc1ccco1	77 to 78
N#CCC1(C#N)CCC2(CC1)OCCO2	137
CCN(CC)CCNC(=O)c1nc2ccc(I)cc2[nH]1	136 to 138
COC(=O)c1ccc2cc(Cl)ccc2c1	97 to 98
O=C(NN=Cc1ccc2ccccc2n1)c1cccc([N+](=O)[O-])c1	217 to 218
CC(=O)Oc1ccc(C#C[Si](C)(C)C)cc1	45
CN1C(=O)C(=O)C(c2ccc(Cl)cc2)Sc2ccccc21 (configuration not stated)	124 to 126
FC(F)(F)C(F)(F)Cc1ccc(CBr)cc1	62 to 63
CCOC(=O)C1=C(C)NC(=S)N(C(=O)c2ccc([N+](=O)[O-])cc2)C1c1cccc([N+](=O)[O-])c1 (configuration not stated)	139 to 141

SMILES	melting point [°C]
COc1ccc(CN2C(=O)CC[C@@]3(C)c4ccc(Cl)cc4CC[C@H]23)cc1 (relative stereo)	55 to 60
CCOc1c(C(=O)c2ccccc2)cnc2[nH]ncc12	195 to 197
CC(C)(C)NS(=O)(=O)Cl	28 to 30
O=C(O)CCCSc1cccc(Br)n1	72 to 74
Cc1oc(-c2ccccc2)nc1COc1ccc(CCCCc2nnn[nH]2)cn1	104 to 105
O=C(Nc1cccc(S(=O)(=O)N2CCOCC2)c1)c1cnn2c(C(F)F)cc(-c3ccc(Cl)cc3)nc12	253
OCc1cn(-c2cccc(Cl)c2)cn1	78 to 79
CCOC(=O)c1cnn2c(-c3cccc(C)n3)ccnc12	135 to 137
Cc1cccc(C)c1NC(=S)N1CC(Oc2cccc(C(F)(F)F)c2)C1	197 to 199
CCC(CC)c1ccc(Cl)c2nc3n(c12)CCCCN3c1ccc(SC)cc1C	113 to 115
c1ccc(-c2ccccc2OCCCCCCOc2ccccc2-c2ccccc2)cc1	92 to 95
Cc1nc(C(=O)NS(=O)(=O)c2c(C)csc2C)no1	164
COC1(c2cnc(Sc3ccc(/C(C)=N/O)cc3)s2)CCOCC1	114 to 116
CN1CCC(N(C)S(=O)(=O)c2ccc(Nc3nccc(Nc4ccc(F)cc4)n3)cc2)CC1	205 to 210
CC(c1cccc(C2(c3ccccc3)OCCO2)c1)c1nc(N)no1 (configuration not stated)	112 to 114
CS(=O)(=O)c1ccc(-c2oncc2C(=O)C2CC2)cc1Cl	148 to 150
Oc1ccc2c(c1)COc1c-2cc2ccc(O)cc2c1-c1ccccc1F	240 to 242
Cc1cccc2c1NC(=O)C2	206 to 207
CC(C)(CNC(=O)COCC(=O)O)SN=O	81 to 83
